{"source": "patent EP0067612A1", "about": "“Penicillin derivatives” (BEECHAM GROUP PLC, priority 1981, dated 1982)", "assay_in_all_cases": "Antibacterial activity, MIC (agar)", "assay_type_in_all_cases": "cell-based", "key": {"E. cloacae N1": {"tested_on": "E. cloacae N1", "settings": "Enterobacter cloacae", "from_the_text": "(§1) The antibacterial activities of compounds of the present invention (MIC µg/ml)"}, "S. aureus Russell": {"tested_on": "S. aureus Russell", "settings": "Staphylococcus aureus", "from_the_text": "as §1"}, "S. faecalis I": {"tested_on": "S. faecalis I", "settings": "Enterococcus faecalis", "from_the_text": "as §1"}, "K. aerogenes A": {"tested_on": "K. aerogenes A", "settings": "Klebsiella aerogenes", "from_the_text": "as §1"}, "P. mirabilis C 977": {"tested_on": "P. mirabilis C 977", "settings": "Proteus mirabilis, C977", "from_the_text": "as §1"}, "P. rettgeri": {"tested_on": "P. rettgeri", "settings": "Providencia rettgeri", "from_the_text": "as §1"}, "N. catarrhalis 1502": {"tested_on": "N. catarrhalis 1502", "from_the_text": "as §1"}, "S. marcescens US 32": {"tested_on": "S. marcescens US 32", "settings": "Serratia marcescens, US32", "from_the_text": "as §1"}, "S. aureus Oxford": {"tested_on": "S. aureus Oxford", "settings": "Staphylococcus aureus", "from_the_text": "as §1"}, "E. coli JT 4": {"tested_on": "E. coli JT 4", "settings": "Escherichia coli, JT4", "from_the_text": "as §1"}, "[1]": {"tested_on": "Ps. aeruginosa NCTC 10662", "settings": "Pseudomonas aeruginosa", "from_the_text": "as §1"}, "S. pyogenes CN 10": {"tested_on": "S. pyogenes CN 10", "settings": "Streptococcus pyogenes, CN10", "from_the_text": "as §1"}, "E. coli NCTC 10418": {"tested_on": "E. coli NCTC 10418", "settings": "Escherichia coli, NCTC10418", "from_the_text": "as §1"}, "E. coli JT 425": {"tested_on": "E. coli JT 425", "settings": "Escherichia coli, JT425", "from_the_text": "as §1"}, "E. coli ESS": {"tested_on": "E. coli ESS", "settings": "Escherichia coli", "from_the_text": "as §1"}, "P. mirabilis 889": {"tested_on": "P. mirabilis 889", "settings": "Proteus mirabilis", "from_the_text": "as §1"}, "Ps. aeruginosa Dalgleish": {"tested_on": "Ps. aeruginosa Dalgleish", "settings": "Pseudomonas aeruginosa, Ps. aeruginosa Dalgleish 10^-2", "from_the_text": "as §1"}, "[2]": {"settings": "NCTC10662, Ps. aeruginosa NCTC 10662"}, "[3]": {"settings": "NCTC10662, Ps. aeruginosa NCTC 10662 10^-2"}}, "note": "Counter-ions that a name gives are not always drawn.", "data": [{"smiles": "NS(=O)(=O)c1ccc(Nc2ncc(NC(=O)N[C@@H](C(=O)N[C@@H]3C(=O)N4[C@@H](C(=O)O)CS[C@H]34)c3ccccc3)c(O)n2)cc1", "note": "[Example 3, 6β-[D,2-{2-(4-Aminosulphonylanilino)-4-hvdroxypyrimidyl-5-aminocarbonylamino}-2-phenyl]acetamidobisnor penicillanic acid, sodium salt]", "values": [{"measurement": "MIC", "setting": "E. cloacae N1", "result": 1, "unit": "µg/mL"}, {"measurement": "MIC", "setting": "S. aureus Russell", "result": 50, "unit": "µg/mL"}, {"measurement": "MIC", "setting": "S. faecalis I", "result": 25, "unit": "µg/mL"}, {"measurement": "MIC", "setting": "K. aerogenes A", "result": 0.2, "unit": "µg/mL"}, {"measurement": "MIC", "setting": "P. mirabilis C 977", "result": 0.2, "unit": "µg/mL"}, {"measurement": "MIC", "setting": "P. rettgeri", "result": 1, "unit": "µg/mL"}, {"measurement": "MIC", "setting": "N. catarrhalis 1502", "result": 0.05, "unit": "µg/mL"}, {"measurement": "MIC", "setting": "S. marcescens US 32", "result": 2.5, "unit": "µg/mL"}, {"measurement": "MIC", "setting": "S. aureus Oxford", "result": 1, "unit": "µg/mL"}, {"measurement": "MIC", "setting": "E. coli JT 4", "result": "> 100", "unit": "µg/mL"}, {"measurement": "MIC", "setting": "[1]; [2]", "result": 5, "unit": "µg/mL"}, {"measurement": "MIC", "setting": "[1]; [3]", "result": 2.5, "unit": "µg/mL"}, {"measurement": "MIC", "setting": "S. pyogenes CN 10", "result": 0.2, "unit": "µg/mL"}, {"measurement": "MIC", "setting": "E. coli NCTC 10418", "result": 0.5, "unit": "µg/mL"}, {"measurement": "MIC", "setting": "E. coli JT 425", "result": 5, "unit": "µg/mL"}, {"measurement": "MIC", "setting": "E. coli ESS", "result": 0.05, "unit": "µg/mL"}, {"measurement": "MIC", "setting": "P. mirabilis 889", "result": "> 100", "unit": "µg/mL"}, {"measurement": "MIC", "setting": "Ps. aeruginosa Dalgleish", "result": 50, "unit": "µg/mL"}]}, {"smiles": "NS(=O)(=O)c1ccc(Nc2ncc(NC(=O)N[C@@H](C(=O)N[C@@H]3C(=O)N4[C@@H](C(=O)O)CS[C@H]34)c3ccc(O)cc3)c(O)n2)cc1", "note": "[Example 4, 6β-[D,2-2-(4-Aminosulphonylanilino)-4-hydroxypyrimidyl-5-aminocarbonylamino}-2-(4-hydroxyphenyl)]acetamido-bisnorpenicillanic acid, sodium salt]", "values": [{"measurement": "MIC", "setting": "E. cloacae N1", "result": 2.5, "unit": "µg/mL"}, {"measurement": "MIC", "setting": "S. aureus Russell", "result": 25, "unit": "µg/mL"}, {"measurement": "MIC", "setting": "S. faecalis I", "result": 25, "unit": "µg/mL"}, {"measurement": "MIC", "setting": "K. aerogenes A", "result": 0.25, "unit": "µg/mL"}, {"measurement": "MIC", "setting": "P. mirabilis C 977", "result": 2.5, "unit": "µg/mL"}, {"measurement": "MIC", "setting": "P. rettgeri", "result": 2.5, "unit": "µg/mL"}, {"measurement": "MIC", "setting": "N. catarrhalis 1502", "result": 0.05, "unit": "µg/mL"}, {"measurement": "MIC", "setting": "S. marcescens US 32", "result": 1, "unit": "µg/mL"}, {"measurement": "MIC", "setting": "S. aureus Oxford", "result": 2.5, "unit": "µg/mL"}, {"measurement": "MIC", "setting": "E. coli JT 4", "result": 100, "unit": "µg/mL"}, {"measurement": "MIC", "setting": "[1]; [2]", "result": 2.5, "unit": "µg/mL"}, {"measurement": "MIC", "setting": "[1]; [3]", "result": 0.5, "unit": "µg/mL"}, {"measurement": "MIC", "setting": "S. pyogenes CN 10", "result": 0.1, "unit": "µg/mL"}, {"measurement": "MIC", "setting": "E. coli NCTC 10418", "result": 0.25, "unit": "µg/mL"}, {"measurement": "MIC", "setting": "E. coli JT 425", "result": 2.5, "unit": "µg/mL"}, {"measurement": "MIC", "setting": "E. coli ESS", "result": 0.05, "unit": "µg/mL"}, {"measurement": "MIC", "setting": "P. mirabilis 889", "result": "> 100", "unit": "µg/mL"}, {"measurement": "MIC", "setting": "Ps. aeruginosa Dalgleish", "result": 25, "unit": "µg/mL"}]}]}
